According to article PMC3906678 (Clinical cancer research : an official journal of the …, 2012):
Read-outs that look alike come from different tables or passages of the source.

Key:
metastatic melanoma [1] = details: cited from earlier work
[2] = human, in vivo
P-AKT Ser473 [3] = details: biopsies from treated patients; cited from earlier work
P-S6 = details: biopsies from treated patients; cited from earlier work
metastatic melanoma [4] = details: temsirolimus; cited from earlier work
P-AKT Ser473 [5] = details: single-agent, matching biopsies, head and neck cancer patients; cited from earlier work

CNC(=O)c1cc(Oc2ccc(NC(=O)Nc3ccc(Cl)c(C(F)(F)F)c3)cc2)ccn1 [Sorafenib]
Clinical response rate (metastatic melanoma [1]; melanoma patients, sorafenib): 3% | Patients who achieved a clinical response (metastatic melanoma [1]; metastatic melanoma patients, sorafenib monotherapy): one of 37 | Mean Cmax and Cavg at steady-state on Day 15 compared to Day 1 [2]: 2-4 fold

CO[C@H]1C[C@@H]2CC[C@@H](C)[C@@](O)(O2)C(=O)C(=O)N2CCCC[C@H]2C(=O)O[C@H]([C@H](C)C[C@@H]2CC[C@@H](OCCO)[C@H](OC)C2)CC(=O)[C@H](C)/C=C(\C)[C@@H](O)[C@@H](OC)C(=O)[C@H](C)C[C@H](C)/C=C/C=C/C=C/1C [everolimus]
Change in P-AKT Ser473 (P-AKT Ser473 [3]): increase | Change in P-S6 (P-S6): decrease

CO[C@H]1C[C@@H]2CC[C@@H](C)[C@@](O)(O2)C(=O)C(=O)N2CCCC[C@H]2C(=O)O[C@H]([C@H](C)C[C@@H]2CC[C@@H](OC(=O)C(C)(CO)CO)[C@H](OC)C2)CC(=O)[C@H](C)/C=C(\C)[C@@H](O)[C@@H](OC)C(=O)[C@H](C)C[C@H](C)/C=C/C=C/C=C/1C [Temsirolimus]
Patients who achieved a clinical response (metastatic melanoma [4]): 1 of 33 | Change in P-AKT Ser473 (P-AKT Ser473 [5]): lack of increase
